≈ marks a conversion by molar mass, not a printed value. Read-outs that look alike come from different tables or passages of the source. Square brackets hold non-standard residues; d marks the D form. Ends that are not written are not given here. Peptide text beside a SMILES is read from it. * marks the point of attachment. Fmoc = O=C(OCC1c2ccccc2-c2ccccc21)*
Legend:
[1] = test system: Staphylococcus aureus ATCC 29213
[2] = test system: Streptococcus sanguis ATCC 10556
Experimental: Streptococcus sanguis ATCC 10556 (Gram-positive (+) bacteria present in tooth crevices) was grown overnight at 37° C. in Brain Heart Infusion (BHI) broth. This culture was reinoculated and incubated at 37° C. to reach the exponential phase of bacteria growth, i.e., a final bacterial suspension containing 10^5 to 5×10^5 colony-forming units (CFU)/ml. The concentration of cells was established by plating 100 μl of different dilutions of the culture solution (e.g., 10^-2, 10^-4) and 10^-4) onto solid agar plates. Following an overnight incubation at 37° C., the CFU thus formed were counted on each agar plate. In 96-well tissue culture plates, as control blanks, eight wells per plate contained only medium, while as a positive growth control, eight other wells contained medium plus cells. […] The plates were incubated overnight at 37° C., and the optical density (OD) determined at 620 nm after 20 to 24 hours incubation.

[3] = test system: Human red blood cells (RBCs); assay: Hemolytic activity; format: cell-based; details: Tables 18-21
Experimental: Each assay was carried out in 96-well culture tissue plates. Four wells per plate contain 125 μl of a non-peptide positive control (1% Triton in de-ionized water), and four wells per plate contain 125 μl of a control blank, phosphate buffered saline (PBS). The hemolytic peptide melittin was used as comparative control. The controls served to detect possible contamination and to calculate the percent hemolysis of each peptide. Human red blood cells (RBCs) were washed with PBS and centrifuged to separate them from the serum. The cells were then resuspended in PBS to a final suspension of 0.5% RBC. 125 μl of this suspension was added to the peptides and controls solution. The release of hemoglobin resulting from the cell lysis was determined by measuring the OD at 414 nm of 100 μl of the supernatant.

[4] = test system: Candida albicans ATCC 10231; details: Tables 14-17
[5] = molecular target: melittin (Apis mellifera, UniProt P01501); assay: cell-based; details: read-out: IC50, inhibition of melittin (converted)
[6] = Tables 7-9, lower parts (unnatural amino acids)
[7] = Tables 11-13, lower parts (unnatural amino acids)

melittin, sequence (P01501 44-69 limits assumed): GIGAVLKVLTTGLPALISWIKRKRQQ

Row | Compound | IC50 [5] [µM] | further results
1 | (KFmoc)Wf(Cys[ACM])-NH2 | – | IC50 against S. aureus [1, 6]: 18 μg/m; IC50 against S. sanguis [2, 7]: 30 μg/m
2 | (KFmoc)Wf(7aHa)-NH2 | – | IC50 against S. aureus [1, 6]: 7 μg/m; IC50 against S. sanguis [2, 7]: 10 μg/m
3 | NCCCC[C@H](NC(=O)OCC1c2ccccc2-c2ccccc21)C(=O)N[C@@H](Cc1c[nH]c2ccccc12)C(=O)N[C@H](Cc1ccccc1)C(=O)N[C@H](Cc1ccc(O)cc1)C(N)=O [(KFmoc)Wfy-NH2] (Fmoc-KW[dF][dY]-NH2) | – | IC50 against S. aureus ([1]; Tables 6-9): 15 µg/mL (≈ 17.4 µM); IC50 against S. sanguis ([2]; Tables 10-13): 17 µg/mL (≈ 19.7 µM)
4 | (KFmoc)ciG-NH2 | – | HD50 (concentration necessary to lyse 50% of the cells) [3]: 35 µg/mL; IC50 against S. sanguis ([2]; Tables 10-13): 23 µg/mL; IC50 against C. albicans [4]: 372 µg/mL
5 | (KFmoc)WY(Hyp)-NH2 | – | HD50 (concentration necessary to lyse 50% of the cells) [3]: 81 µg/mL; IC50 against S. aureus [1, 6]: 9 μg/m; IC50 against S. sanguis [2, 7]: 10 μg/m
6 | CC[C@@H](C)[C@@H](NC(=O)[C@@H](CS)NC(=O)[C@H](CCCCN)NC(=O)OCC1c2ccccc2-c2ccccc21)C(=O)N[C@H](C)C(N)=O [(KFmoc)cia-NH2] (Fmoc-K[dC][dI][dA]-NH2) | – | HD50 (concentration necessary to lyse 50% of the cells) [3]: 77 µg/mL; IC50 against S. sanguis ([2]; Tables 10-13): 59 µg/mL (≈ 90.1 µM)
7 | NCCCC[C@H](NC(=O)OCC1c2ccccc2-c2ccccc21)C(=O)N[C@@H](Cc1c[nH]c2ccccc12)C(=O)N[C@@H](Cc1ccc(O)cc1)C(=O)N[C@H](CC(N)=O)C(N)=O [(KFmoc)WYn-NH2] (Fmoc-KWY[dN]-NH2) | – | HD50 (concentration necessary to lyse 50% of the cells) [3]: 257 µg/mL; IC50 against S. aureus ([1]; Tables 6-9): 6 µg/mL (≈ 7.22 µM); IC50 against S. sanguis ([2]; Tables 10-13): 8 µg/mL (≈ 9.63 µM)
8 | NCCCC[C@H](NC(=O)OCC1c2ccccc2-c2ccccc21)C(=O)N[C@@H](Cc1c[nH]c2ccccc12)C(=O)N[C@@H](Cc1ccc(O)cc1)C(=O)N[C@H](CS)C(N)=O [(KFmoc)WYc-NH2] (Fmoc-KWY[dC]-NH2) | – | IC50 against S. aureus ([1]; Tables 6-9): 21 µg/mL (≈ 25.6 µM); IC50 against S. sanguis ([2]; Tables 10-13): 42 µg/mL (≈ 51.2 µM)
9 | Ac-IVILLR-NH2 [Ac-IVILLR-NH2] | > 326 | –
10 | Ac-IVIFFI-NH2 [Ac-IVIFFI-NH2] | 105 | –
11 | Ac-IVILLY-NH2 [Ac-IVILLY-NH2] | 12.9 | –
12 | Ac-FIIWFK-NH2 [Ac-FIIWFK-NH2] | 1450 | –
13 | Ac-IVIFFN-NH2 [Ac-IVIFFN-NH2] | 22.7 | –
14 | Ac-IVIFFP-NH2 [Ac-IVIFFP-NH2] | 49 | –
15 | Ac-FIIYFE-NH2 [Ac-FIIYFE-NH2] | 7.8 | –
16 | Ac-IVILTH-NH2 [Ac-IVILTH-NH2] | 76.1 | –
17 | Ac-IVIFFH-NH2 [Ac-IVIFFH-NH2] | 36.8 | –
18 | Ac-IVIFFR-NH2 [Ac-IVIFFR-NH2] | > 299 | –

Row | Compound | IC50 [5] [µM] | further results
19 | Ac-IVILTR-NH2 [Ac-IVILTR-NH2] | > 331 | –
20 | Ac-IVILLK-NH2 [Ac-IVILLK-NH2] | > 338 | –
21 | Ac-IVIFFQ-NH2 [Ac-IVIFFQ-NH2] | 32.2 | –
22 | Ac-IIIYFE-NH2 [Ac-IIIYFE-NH2] | 5.85 | –
23 | Ac-IVILTF-NH2 [Ac-IVILTF-NH2] | 13.4 | –
24 | Ac-IQIWFE-NH2 [Ac-IQIWFE-NH2] | 24 | –
25 | Ac-IVIFFL-NH2 [Ac-IVIFFL-NH2] | 140 | –
26 | Ac-FQIWCE-NH2 [Ac-FQIWCE-NH2] | 10.9 | –
27 | CC[C@@H](C)[C@@H](NC(=O)[C@@H](Cc1ccccc1)NC(=O)[C@H](Cc1c[nH]c2ccccc12)NC(=O)[C@H](CCCCN)NC(=O)OCC1c2ccccc2-c2ccccc21)C(N)=O [(KFmoc)Wfi-NH2] (Fmoc-KW[dF][dI]-NH2) | – | IC50 against S. aureus ([1]; Tables 6-9): 4 µg/mL (≈ 4.91 µM); IC50 against S. sanguis ([2]; Tables 10-13): 4 µg/mL (≈ 4.91 µM)
28 | Ac-IVILTL-NH2 [Ac-IVILTL-NH2] | 14 | –
29 | NDEIVI-NH2 [NDEIVI-NH2] | 444 | –
30 | Ac-IVIFFK-NH2 [Ac-IVIFFK-NH2] | > 310 | –
31 | Ac-IVILLS-NH2 [Ac-IVILLS-NH2] | 21.5 | –
32 | Ac-IVILTW-NH2 [Ac-IVILTW-NH2] | 14 | –
33 | Ac-FIIYCE-NH2 [Ac-FIIYCE-NH2] | 5.68 | –
34 | Ac-IVILLA-NH2 [Ac-IVILLA-NH2] | 22 | –
35 | Ac-FQIYFE-NH2 [Ac-FQIYFE-NH2] | 21.4 | –
36 | Ac-IVILLC-NH2 [Ac-IVILLC-NH2] | > 350 | –

Reference: US5440016A, “Peptides of the formula (KFmoc) ZZZ and their uses” (priority 1993, dated 1995)
